Measured values reported in US5567725A, “Substituted cyclohexanol esters, their use for treating diseases, and pharmaceutical preparations” (Hoechst Aktiengesellschaft, priority 1994, dated 1996).

Biological target: T1, glucose-6-phosphatase system (Rattus norvegicus, UniProt F7EWB7)
T1 construct: from tissue; host or cells: liver microsomes, male Wistar rats
T1 sequence (F7EWB7 1-429): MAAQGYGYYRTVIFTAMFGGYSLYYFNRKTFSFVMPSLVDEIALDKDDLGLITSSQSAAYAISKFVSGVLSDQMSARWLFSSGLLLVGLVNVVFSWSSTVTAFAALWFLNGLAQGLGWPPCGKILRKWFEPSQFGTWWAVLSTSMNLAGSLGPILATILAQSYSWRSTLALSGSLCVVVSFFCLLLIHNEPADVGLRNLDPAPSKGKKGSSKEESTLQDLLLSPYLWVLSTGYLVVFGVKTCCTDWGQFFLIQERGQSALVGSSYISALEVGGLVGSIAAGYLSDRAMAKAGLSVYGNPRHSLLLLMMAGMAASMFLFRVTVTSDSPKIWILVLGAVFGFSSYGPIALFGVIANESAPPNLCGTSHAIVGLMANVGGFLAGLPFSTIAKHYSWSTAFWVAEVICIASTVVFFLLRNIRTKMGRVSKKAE
Test: enzyme test using liver microsomes: phosphate liberated from glucose-6-phosphate
Type: biochemical, male Wistar rats
Details: rat liver microsome fraction; glucose-6-phosphate 1 mmol/l; HEPES pH 7.0; room temperature, 20 minutes
Description: The effect of the novel compounds on the glucose-6-phosphatase system was investigated in an enzyme test using liver microsomes.
0.1 ml of test mixture contained glucose-6-phosphate (1mmol/l), the test substance, 0.1 mg of microsome fraction and 100 mmol/l HEPES buffer (4-(2-hydroxyethyl)piperazine-1-ethanesulfonic acid), pH 7.0. The reaction was started by adding the enzyme. After proceeding at room temperature for 20 minutes, the reaction was stopped by adding 0.2 ml of phosphate reagent. The sample was incubated at 37° C. for 30 minutes and the absorption (A) of the blue color was then measured at 570 nm.

Question: For `CS(=O)(=O)NC(=O)C1(OCC2CC2c2ccc(Cl)cc2)CC(O)C(O)C(OC(=O)C=C(c2ccccc2)n2cnc3ccccc32)C1` (stereo not shown) [Compound 4], which IC50 is on record?
Answer: 20 nM

Question: For `O=C(/C=C(/c1ccccc1)n1cnc2ccccc21)O[C@@H]1C[C@](OC[C@@H]2C[C@@H]2c2ccc(Cl)cc2)(C(=O)NS(=O)(=O)c2ccc3ccccc3c2)C[C@@H](O)[C@H]1O` [Compound 9], which IC50 is on record?
Answer: 300 nM

Question: For `O=C(/C=C(/c1ccccc1)n1cnc2ccccc21)O[C@@H]1C[C@](OC[C@@H]2C[C@@H]2c2ccc(Cl)cc2)(c2nnn[nH]2)C[C@@H](O)[C@H]1O` [Compound 19], which IC50 is on record?
Answer: 800 nM

System: glucose-6-phosphatase
Test: not given
Details: literature statement; cited from earlier work

Question: With `S=C=Nc1ccccc1C=Cc1ccccc1N=C=S` [2,2'-diisothiocyanatostilbene] as the molecule, how does the “inhibition of glucose-6-phosphatase (in words)” value (shortened to “inhibition”) read?
Answer: non-specific inhibitors

Question: Which “inhibition” value does the source give for `CC(=O)Oc1ccccc1C=Cc1ccccc1N=C=S` [2-isothiocyanato-2'-acetoxystilbene] here?
Answer: non-specific inhibitors

Question: For `O=C(O)c1cc(SSc2ccc([N+](=O)[O-])c(C(=O)O)c2)ccc1[N+](=O)[O-]` [5,5'-dithiobis-2-nitrobenzoic acid], which “inhibition” value is on record?
Answer: non-specific inhibitors

Question: For `O=C(CCc1ccc(O)cc1)c1c(O)cc(O)cc1O[C@@H]1O[C@H](CO)[C@@H](O)[C@H](O)[C@H]1O` [phlorrhizin], which “inhibition” value is on record?
Answer: non-specific inhibitors
